According to US5679644A, “Methods of treating diseases using triterpenoid acid derivatives” (Glycomed Incorporated, priority 1995, dated 1997):
Several values for one entry are separate records, joined by “and”; a condition that tells them apart may be missing. Equal values may be shown once. Entries after “also recorded” stand apart in the source; their conditions may differ.

Legend:
P-selectin [1] = experiment: P-selectin binding to HL-60 cells; assay type: cell-based; conditions: HL-60 assay; for IC50: P-selectin 200 ng/ml, read-out: IC50 for interfering with P-selectin binding to HL-60 cells
Experimental: (§1) In addition to E-selectin binding, certain of the invention compounds were tested for their capacity to inhibit P-selectin binding to cancer cells, and to a chemical known to bind to P-selectin, 2,3 sLex. The following materials and procedures were used.
(§2) Compound Preparation. Compound (5) of Example 5, and compound (8) of Example 8 were solubilized in DMF to yield a 100 mM solution.
(§3) P-Selectin Detection Solutions. Goat F(ab')2 anti-human IgG (Fc spec.)biotin and streptavidin-AP were diluted 1:1000 in 1% BSA-TBS with 1 mM Ca. An Elisa assay was utilized to measure P-selectin binding to 2,3 sLex, and P-selectin was added at 300 ng/ml. An Elisa assay was also used to assay for the capacity of the invention compounds to inhibit cancer cell binding to P-selectin. HL-60 cancer cells were used, and P-selectin was added at 200 ng/ml.
(§4) Plate Preparation. 2,3 sLex was coated at 30 pmoles/well to Probind microtiter plates for Elisa. The glycolipid was added at 50 μl/well in 50% MeOH and allowed to evaporate overnight. Elisa plates and HL-60 assay plates were blocked with 5% BSA-TBS Ca^++ for more than an hour at room temperature. The plates were washed with TBS without Ca^++.
Cell Preparation. HL-60 cells were harvested by centrifugation, washed with TBS no Ca^++, counted, and the density adjusted to 2×10^6 /ml in 1% BSA-TBS Ca^++.
(§5) Assay. Briefly, the assays were conducted as follows. Compounds (5) and (8) were added to P-selectin detection solutions at 4, 2, 1, 0.5, 0.25 and 0.125 mM for the HL-60 based assay, and at 2, 1, 0.5, 0.25, 0.125 and 0.063 mM for the assay involving 2,3 sLex. DMF solutions were added directly to 1% BSA/TBS-Ca for dilutions through 0.5 mM. Lower concentrations were made in serial two-fold dilutions in BSA-TBS. These solutions were incubated at room temperature on a rotating platform for 1 hour, centrifuged to pellet particulate matter, and then added in triplicate for 2,3 sLex coated plates, or quadruplicate for HL-60 cells at 50 μl/well. An equal volume of HL-60 cells was added to wells for the cell based assay. The 2,3 sLex coated plates were incubated at 37° C. for 45 minutes, washed 3× with TBS, and 50 μl of substrate added to each well. Plates with HL-60 cells were incubated at 4° C. for 1 hour, the cells pelleted by centrifugation and washed 3× with TBS. For both assays, substrate was added at 75 μl/well. After color developed to an appropriate intensity, 50 μl/well was transferred to another plate for O.D. determination at 405 nm.

P-selectin [2] = experiment: Elisa of P-selectin binding to 2,3 sLex; conditions: for IC50: Elisa, P-selectin 300 ng/ml, read-out: IC50 for inhibiting P-selectin binding to 2,3 sLex
Experimental: as §1, §2, §3, §4
as §5, with “Plates with HL-60 cells were incubated at 4° C. for 1 hour, the cells pelleted by centrifugation and washed 3× with TBS. For both assays, substrate was added at 75 μl/well. After color developed to an appropriate intensity, 50 μl/well was transferred to another plate for O.D. determination at 405 nm.” left out

E-Selectin = E-Selectin chimera binding to fixed LS174T colon carcinoma cells; assay type: cell-based; conditions: for IC50: lowest concentration from serial two-fold dilutions which inhibits by 50% or more relative to control, range, read-out: IC50 of Compound in Assay of E-Selectin Binding To Fixed LS174T Colon Carcinoma Cells (Range); for interference with cancer cell binding to E-selectin (in words): LS174T colon carcinoma cells
Experimental: Experiments were conducted to determine the capacity of the invention compounds to interfere with the binding of cancer cells to E-selectin. The compounds were dissolved in dimethylformamide (DMF) prior to being assayed. […] The mixture was rotated briskly on a rotary platform at room temperature for 30-60 minutes. Particulate matter was then removed by centrifugation, and the soluble fraction was transferred onto 96-well microtiter plates containing glutaraldehyde fixed LS174T colon carcinoma cells. […] Plates were developed in the dark and read at 405 nm. […] DMF (vehicle) typically had no effect. […] For all but 18-beta-glycyrrhetinic acid the compounds had low IC50 values, thus indicating their suitability for the treatment or prevention of certain forms of metastatic cancers.

[3] = tested on: arachidonic acid-induced ear swelling; experiment: Arachidonic acid (AA) murine skin (ear) inflammation model, topical administration; assay type: in vivo; conditions: for anti-inflammatory activity (in words): arachidonic acid murine skin inflammation model
Experimental: Using the arachidonic acid (AA), murine skin inflammation model, described by Harris, R. R. et al. (Skin Pharmacol (1990) 3:2940) the anti-inflammatory activity of 1-[3-O-(18-β-Glycyrrhetinic acid)]-2-(α-L-C-methylfucopyranose)-2',3'-propanediol (5) was tested. For comparison, 18-β-glycyrrhetinic acid was also tested. All compounds were dissolved at 100 mg/mL in methanol or chloroform (18-β-glycyrrhetinic acid) except compound (5) which was at 0.80 mg/mL. 10 μL of each compound was applied to the ear. AA was applied alone, or followed immediately with 1-[3-O-(18-β-Glycyrrhetinic acid)]-2-(α-L-C-methylfucopyranose)-2',3'-propanediol (5) or 18-β-glycyrrhetinic acid. 90 minutes later a 6 mm disk of each ear was removed and weighed.

5-Lipoxygenase [4] = molecular target: T1, 5-Lipoxygenase (Rattus norvegicus, UniProt P12527); experiment: Inhibition of 5-Lipoxygenase, crude enzyme preparation from rat basophilic leukemia cells (RBL-1); assay type: biochemical
T1 construct: crude enzyme preparation from rat basophilic leukemia cells (RBL-1); endogenous in cells; host or cells: RBL-1 (rat basophilic leukemia cells)
T1 sequence (P12527 1-673): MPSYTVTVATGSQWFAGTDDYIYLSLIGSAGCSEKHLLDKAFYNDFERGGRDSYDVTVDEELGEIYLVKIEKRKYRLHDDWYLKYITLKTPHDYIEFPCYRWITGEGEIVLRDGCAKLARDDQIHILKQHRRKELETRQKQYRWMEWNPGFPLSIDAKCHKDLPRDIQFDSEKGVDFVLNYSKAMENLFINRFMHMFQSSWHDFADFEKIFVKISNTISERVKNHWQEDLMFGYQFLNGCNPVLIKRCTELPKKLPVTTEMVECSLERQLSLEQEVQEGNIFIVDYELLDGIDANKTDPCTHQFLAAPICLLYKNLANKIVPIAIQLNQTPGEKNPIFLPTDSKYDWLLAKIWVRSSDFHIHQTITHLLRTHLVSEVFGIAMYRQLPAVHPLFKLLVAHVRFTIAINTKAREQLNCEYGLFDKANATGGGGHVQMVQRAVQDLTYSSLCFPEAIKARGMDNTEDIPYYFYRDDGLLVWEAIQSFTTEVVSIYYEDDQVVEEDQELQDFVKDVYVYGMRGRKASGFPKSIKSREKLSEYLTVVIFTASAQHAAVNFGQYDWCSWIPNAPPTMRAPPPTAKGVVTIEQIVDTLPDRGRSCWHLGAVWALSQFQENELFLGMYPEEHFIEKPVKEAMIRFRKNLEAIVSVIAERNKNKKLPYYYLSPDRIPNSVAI
Experimental: Thus, compounds that inhibit 5-lipoxygenase will have significant medical applications that require regulating or lowering leukotriene levels. Thus, the compounds of the instant invention were assayed for their capacity to inhibit 5-lipoxygenase. 5-Lipoxygenase assays were run using a crude enzyme preparation from rat basophilic leukemia cells (RBL-1) ([…]. and Samuelsson, B. Proc. Natl. Acad. Sci. […] W. and […]. Biol. Chem. (1985) 260:11554-11559). Test compounds were pre-incubated with the enzyme for 5 minutes at room temperature and the reaction is initiated by addition of substrate, […]. Following an 8 minute incubation at room temperature, the reaction was terminated by addition of NaOH, and absorbance read at 234 nm to determine levels of 5-HETE. Compounds were screened at 50 μM.

[5] = J. Med. Chem. (1974) 17(2):184-191; cited from earlier work
5-lipoxygenase [6] = conditions: Sotomatsu et al. 1959; Inoue et al. 1986; cited from earlier work

C[C@@H]1O[C@@H](CC(=O)CO[C@H]2CC[C@]3(C)[C@H]4C(=O)C=C5[C@@H]6C[C@@](C)(C(=O)O)CC[C@]6(C)CC[C@@]5(C)[C@]4(C)CC[C@H]3C2(C)C)[C@@H](O)[C@H](O)[C@@H]1O [(8), 1-[3-O-(18-β-Glycyrrhetinic acid)]-2-oxo-2-(α-L-C-methylfucopyranose)-ethane]
interference with P-selectin binding to HL-60 cells (in words) (P-selectin [1]): interfered with P-selectin binding to HL-60 cells in a dose dependent way | IC50 (P-selectin [1]): ~750 µM | IC50 (P-selectin [2]): ~125 µM | IC50 (E-Selectin): 60 to 250 µM | anti-inflammatory activity (in words) [3]: activity similar to compounds (3) and (5); also recorded: significant anti-inflammatory activity

CC(CO[C@H]1CC[C@]2(C)[C@H]3C(=O)C=C4[C@@H]5C[C@@](C)(C(=O)O)CC[C@]5(C)CC[C@@]4(C)[C@]3(C)CC[C@H]2C1(C)C)C[C@@H]1O[C@@H](C)[C@@H](O)[C@@H](O)[C@@H]1O (stereo partly drawn) [(3), 1-[3-O-(18-β-Glycyrrhetinic acid)]-2-(α-L-C-methylfucopyranose)-propane]
interference with cancer cell binding to E-selectin (in words) (E-Selectin): markedly lower IC50 values relative to 18-beta-glycyrrhetinic acid | IC50 (E-Selectin): 60 to 125 µM | anti-inflammatory activity (in words) [3]: significant anti-inflammatory activity

CC1(C)[C@@H](O)CC[C@]2(C)[C@H]3C(=O)C=C4[C@@H]5C[C@@](C)(C(=O)O)CC[C@]5(C)CC[C@@]4(C)[C@]3(C)CC[C@@H]12 [18-β-glycyrrhetinic acid]
inhibition at 100 µM (5-Lipoxygenase [4]): 36% | inhibition at 1000 µM (5-Lipoxygenase [4]): 81% | IC50 (E-Selectin): 125 to 500 µM

CC1(C)[C@@H](O)CC[C@]2(C)[C@H]3CC=C4[C@@H]5C[C@@](C)(C(=O)O)CC[C@]5(C)CC[C@@]4(C)[C@]3(C)CC[C@@H]12 [11-Deoxoglycyrrhetinic acid]
aldosterone (DCA)-like activity (in words) [5]: does not substantially show the DCA activity of the parent compound

C[C@@H]1O[C@@H](CC(O)(CO)CO[C@H]2CC[C@]3(C)[C@H]4C(=O)C=C5[C@@H]6C[C@@](C)(C(=O)O)CC[C@]6(C)CC[C@@]5(C)[C@]4(C)CC[C@H]3C2(C)C)[C@@H](O)[C@H](O)[C@@H]1O (stereo partly drawn) [Compound (5), 1-[3-O-(18-β-Glycyrrhetinic acid)]-2-(α-L-C-methylfucopyranose)-2',3'-propanediol]
inhibition at 100 µM (5-Lipoxygenase [4]): 20% | inhibition at 1000 µM (5-Lipoxygenase [4]): 74% | inhibitory activity relative to glycyrrhizin (in words) (5-Lipoxygenase [4]; both concentrations tested): significantly greater inhibitory activity | interference with P-selectin binding to HL-60 cells (in words) (P-selectin [1]): interfered with P-selecting binding to HL-60 cells in a dose dependent manner, but was again less effective than compound (8) | IC50 (P-selectin [1]): ~2000 µM | inhibition of P-selectin binding to sLex (in words) (P-selectin [2]): did inhibit P-selectin binding to sLex, it was less effective than compound (8) | IC50 (P-selectin [2]): < 1000 µM and > 500 µM | interference with cancer cell binding to E-selectin (in words) (E-Selectin): markedly lower IC50 values relative to 18-beta-glycyrrhetinic acid | IC50 (E-Selectin): 60 to 125 µM | anti-inflammatory activity (in words) [3]: significant anti-inflammatory activity | percent inhibition of swelling caused by AA alone ([3]; topical, 10 μL of 0.80 mg/mL solution, 90 minutes): about 71% | % Inhibition of Swelling ([3]; topical, arachidonic acid ear model, 800 μg applied): 71.3%

CC1(C)[C@@H](O[C@H]2O[C@H](C(=O)O)[C@@H](O)[C@H](O)[C@H]2O[C@@H]2O[C@H](C(=O)O)[C@@H](O)[C@H](O)[C@H]2O)CC[C@]2(C)[C@H]3C(=O)C=C4[C@@H]5C[C@@](C)(C(=O)O)CC[C@]5(C)CC[C@@]4(C)[C@]3(C)CC[C@@H]12 [Glycyrrhizin]
inhibition at 100 µM (5-Lipoxygenase [4]): 9% | inhibition at 1000 µM (5-Lipoxygenase [4]): 31%

CC1(C)[C@@H](O)CC[C@]2(C)[C@H]3C(=O)C=C4[C@@H]5C[C@@](C)(C(=O)O)CC[C@]5(C)CC[C@@]4(C)[C@]3(C)CC[C@@H]12 [Glycyrrhetinic acid]
inhibition of enzymes involved in leukotriene biosynthesis, including 5-lipoxygenase (in words) (5-lipoxygenase [6]): shown to inhibit enzymes involved in leukotriene biosynthesis, including 5-lipoxygenase activity
